# Test results from publication PMC8247900 (Clinical Pharmacology and Therapeutics, 2021).
# Columns and labels:
# [1] = format: in vivo, human
# CYP1A2 [2] = target: T1, CYP1A2 (Homo sapiens, UniProt P05177); experiment: Clinical phenotyping cocktail study: effect of metamizole on CYP1A2; format: in vivo
# T1 sequence (P05177 1-516): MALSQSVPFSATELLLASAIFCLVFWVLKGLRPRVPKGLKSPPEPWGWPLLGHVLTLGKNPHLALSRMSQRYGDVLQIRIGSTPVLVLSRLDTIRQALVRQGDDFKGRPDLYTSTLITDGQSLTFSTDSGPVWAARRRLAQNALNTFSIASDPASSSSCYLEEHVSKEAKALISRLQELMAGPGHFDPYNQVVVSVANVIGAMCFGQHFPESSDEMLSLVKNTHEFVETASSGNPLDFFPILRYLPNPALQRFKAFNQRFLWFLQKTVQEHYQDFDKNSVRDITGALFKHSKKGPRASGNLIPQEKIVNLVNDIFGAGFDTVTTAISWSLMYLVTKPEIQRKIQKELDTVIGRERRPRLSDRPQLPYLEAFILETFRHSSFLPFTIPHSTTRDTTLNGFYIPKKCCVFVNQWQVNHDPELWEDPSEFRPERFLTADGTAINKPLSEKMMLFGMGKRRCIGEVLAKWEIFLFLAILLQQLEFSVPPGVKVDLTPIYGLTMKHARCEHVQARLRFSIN
# CYP2B6 [3] = experiment: Clinical phenotyping cocktail study: effect of metamizole on CYP2B6; format: in vivo, human; conditions: 3 g of metamizole per day for 1 week
# CYP2C9 = experiment: Clinical phenotyping cocktail study: effect of metamizole on CYP2C9; format: in vivo, human; conditions: 3 g of metamizole per day for 1 week
# CYP2C19 = experiment: Clinical phenotyping cocktail study: effect of metamizole on CYP2C19; format: in vivo, human; conditions: 3 g of metamizole per day for 1 week
# CYP2D6 = experiment: Clinical phenotyping cocktail study: effect of metamizole on CYP2D6; format: in vivo, human
# CYP3A4 = experiment: Clinical phenotyping cocktail study: effect of metamizole on CYP3A4; format: in vivo, human; conditions: 3 g of metamizole per day for 1 week
# CYP2B6 [4] = conditions: healthy volunteers, 1.5 g metamizole per day for 4 days; cited from earlier work
# [5] = retrospective study, patients treated with metamizole; cited from earlier work
# [6] = patients after organ transplantation; cited from earlier work
# CYP1A2 [7] = format: in vivo, human; conditions: male, human, plasma, oral
# CYP1A2 mRNA = experiment: Induction of CYP mRNA expression in HepaRG cells; format: cell-based, human; conditions: 72 hours
# CYP2B6 mRNA = experiment: Induction of CYP mRNA expression in HepaRG cells; format: cell-based, human; conditions: 72 hours, 300 µM 4‐MAA, 10 µM rifampicin; for CYP2B6 mRNA induction in 5‐F cells: 5‐F control HepaRG cells, 1 µM CITCO
# CYP2C9 mRNA = experiment: Induction of CYP mRNA expression in HepaRG cells; format: cell-based, human; conditions: 5‐F control HepaRG cells, 72 hours; 300 µM 4‐MAA, 1 µM CITCO, 10 µM rifampicin
# CYP2C19 mRNA = experiment: Induction of CYP mRNA expression in HepaRG cells; format: cell-based, human; conditions: 72 hours, 300 µM 4‐MAA, 10 µM rifampicin; for CYP2C19 mRNA induction in 5‐F cells: 5‐F control HepaRG cells, 1 µM CITCO
# CYP2D6 mRNA = experiment: Induction of CYP mRNA expression in HepaRG cells; format: cell-based, human; conditions: differentiated HepaRG cells, 72 hours; 300 µM 4‐MAA; 2 mM metformin
# [8] = clinical study, 3 g of metamizole per day for 1 week
# [9] = differentiated HepaRG cells, vs DMSO control
structure (smiles),measurement,setting,value
"Cc1ncc2n1-c1ccc(Cl)cc1C(c1ccccc1F)=NC2 [Midazolam, midazolam]",AUC(0-inf),"[1]; male, human, plasma, oral",0.0197 µg·h/mL
same,half-life,"[1]; male, human, plasma, oral",2.44 h
"Cc1c(N(C)CS(=O)(=O)O)c(=O)n(-c2ccccc2)n1C [metamizole, Metamizole]",effect on CYP1A2 activity,CYP1A2 [2]; [8],weakly inhibited
same,change in caffeine:paraxanthine MR,"CYP1A2 [2]; metamizole 3 × 1 g per day for 7 days, P = 0.0024",significant increase
same,effect on CYP2B6 activity,CYP2B6 [3],moderate induction
same,effect on CYP2C9 activity,CYP2C9,weakly induced
same,effect on CYP2C19 activity,CYP2C19,moderately
same,effect on CYP2D6 activity,CYP2D6; [8],did not alter
same,change in the MR of metoprolol,CYP2D6; metamizole 3 × 1 g per day for 7 days,no significant change
same,effect on CYP3A4 activity,CYP3A4,moderate induction
same,increase in the bupropion hydroxylase activity,CYP2B6 [4],2.1 fold
same,lower sertraline plasma concentrations than patients without metamizole,[5],67%
same,effect on cyclosporine blood concentrations,[6],decreased
"Cn1c(=O)[nH]c2ncn(C)c2c1=O [Paraxanthine, paraxanthine]",AUC(0-inf),"[1]; male, human, plasma, oral",4.68 µg·h/mL
same,AUC(0-inf),CYP1A2 [7],4.62 µg·h/mL
CC(C(=O)O)c1ccc(-c2ccc(O)cc2)c(F)c1 (centres unmarked) [4′‐hydroxyflurbiprofen],AUC(0-inf),"[1]; male, human, plasma, oral",0.726 µg·h/mL
"Clc1ccc(-c2nc3sccn3c2C=NOCc2ccc(Cl)c(Cl)c2)cc1 [CITCO, 6‐(4‐chlorophenyl)imidazo[2,1‐b][1,3]thiazole‐5‐carbaldehyde O‐(3,4‐dichlorobenzyl)oxime]",CYP1A2 mRNA induction in 5‐F cells,"CYP1A2 mRNA; 5‐F control HepaRG cells, 1 µM CITCO",induced
same,CYP1A2 mRNA induction in HepaRG cells lacking CAR,"CYP1A2 mRNA; CAR‐knockout HepaRG cells, 1 µM CITCO",still induced
same,CYP2B6 mRNA induction in 5‐F cells,CYP2B6 mRNA,induced
same,CYP2C9 mRNA induction in 5‐F cells,CYP2C9 mRNA,not significant
same,CYP2C19 mRNA induction in 5‐F cells,CYP2C19 mRNA,induced
same,CYP3A4 mRNA induction in 5‐F cells,CYP3A4 mRNA,not significant
"COc1ccc2[nH]c([S+]([O-])Cc3ncc(C)c(OC)c3C)nc2c1 (centres unmarked) [Omeprazole, omeprazole]",AUC(0-inf),"[1]; male, human, plasma, oral",0.187 µg·h/mL
"O=C1Nc2ccc(Cl)cc2[C@@](C#CC2CC2)(C(F)(F)F)O1 [Efavirenz, efavirenz]",Basal metabolic ratio in CYP2B6 NM,"[1]; basal state, CYP2B6 *1/*1 carriers (normal metabolizers, four subjects)",96.3
same,Basal metabolic ratio in CYP2B6 IM,"[1]; basal state, CYP2B6 *1/*6 carriers (intermediate metabolizers, eight subjects)",87.5
same,AUC(0-inf),"[1]; male, human, plasma, oral",3.98 µg·h/mL
CN(C)C(=N)N=C(N)N [metformin],effect on CYP1A2 mRNA,"CYP1A2 mRNA; differentiated HepaRG cells, 300 µM 4‐MAA, 2 mM metformin",suppressed
same,effect on CYP2D6 mRNA,CYP2D6 mRNA,not significantly affected
"Cn1c(=O)c2c(ncn2C)n(C)c1=O [Caffeine, caffeine]",AUC(0-inf),"[1]; male, human, plasma, oral",7.21 µg·h/mL
CO[C@H]1/C=C/O[C@@]2(C)Oc3c(C)c(O)c4c(O)c(c(/C=N/N5CCN(C)CC5)c(O)c4c3C2=O)NC(=O)/C(C)=C\C=C\[C@H](C)[C@H](O)[C@@H](C)[C@@H](O)[C@@H](C)[C@H](OC(C)=O)[C@@H]1C [rifampicin],CYP2B6 mRNA induction in 5‐F cells,CYP2B6 mRNA,not significant
same,increase of CYP2B6 mRNA content,CYP2B6 mRNA; [9],4.3 fold
same,CYP2C19 mRNA induction in 5‐F cells,CYP2C19 mRNA,increased
same,increase of CYP2C19 mRNA content,CYP2C19 mRNA; [9],2.2 fold
"COCCc1ccc(OCC(O)CNC(C)C)cc1 (centres unmarked) [Metoprolol, metoprolol]",AUC(0-inf),"[1]; male, human, plasma, oral",0.0414 µg·h/mL
"CC(C(=O)O)c1ccc(-c2ccccc2)c(F)c1 (centres unmarked) [Flurbiprofen, flurbiprofen]",AUC(0-inf),"[1]; male, human, plasma, oral",10 µg·h/mL
